Holding throughout (type): cell-based
Assay [1] addresses T1, GIRK4 (Rattus norvegicus, UniProt P48548).
T1 construct: gene Kcnj5
The experiment in a line: two-electrode voltage clamp in Xenopus oocytes, homomeric GIRK4 co-expressed with Gβγ. In general terms: Two-electrode voltage clamp is typically applied to oocytes expressing channels or transporters.

Assay [2] deals with T2, GIRK2 (Mus musculus, UniProt P48542, I82L).
T2 construct: gene Kcnj6
The experiment in a line: two-electrode voltage clamp in Xenopus oocytes, […] compound.

Assay [3] deals with T3, GIRK2 (Mus musculus, UniProt P48542).
T3 construct: gene Kcnj6
T3 sequence (P48542 whole entry): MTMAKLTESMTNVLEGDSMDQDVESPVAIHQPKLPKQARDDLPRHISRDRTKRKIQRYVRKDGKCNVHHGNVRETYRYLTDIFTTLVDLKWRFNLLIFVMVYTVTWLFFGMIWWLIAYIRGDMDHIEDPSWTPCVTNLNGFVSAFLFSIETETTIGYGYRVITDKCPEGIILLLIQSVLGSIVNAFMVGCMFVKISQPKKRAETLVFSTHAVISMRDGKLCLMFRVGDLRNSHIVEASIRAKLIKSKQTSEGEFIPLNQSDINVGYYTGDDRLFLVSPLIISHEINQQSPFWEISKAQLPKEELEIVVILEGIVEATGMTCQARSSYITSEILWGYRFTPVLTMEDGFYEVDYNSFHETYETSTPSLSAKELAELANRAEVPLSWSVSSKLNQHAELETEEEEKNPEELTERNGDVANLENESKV
T3 sequence (P62871 2-340 partner): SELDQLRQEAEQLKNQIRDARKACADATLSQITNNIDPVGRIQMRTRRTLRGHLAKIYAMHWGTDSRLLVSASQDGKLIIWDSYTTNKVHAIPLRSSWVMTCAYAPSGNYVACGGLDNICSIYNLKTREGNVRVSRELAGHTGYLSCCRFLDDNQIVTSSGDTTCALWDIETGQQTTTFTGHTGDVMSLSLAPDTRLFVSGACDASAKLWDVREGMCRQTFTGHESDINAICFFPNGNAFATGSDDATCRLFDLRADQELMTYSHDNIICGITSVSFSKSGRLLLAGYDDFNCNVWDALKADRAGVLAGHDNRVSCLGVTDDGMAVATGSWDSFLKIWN
T3 sequence (P63212 2-68 partner): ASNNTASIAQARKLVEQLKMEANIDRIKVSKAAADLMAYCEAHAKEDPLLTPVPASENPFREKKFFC
The experiment in a line: two-electrode voltage clamp in Xenopus oocytes, homomeric GIRK2 co-expressed with Gβγ.

The target in assay [4] is T4, GIRK4 (Rattus norvegicus, UniProt P48548, E147Q).
T4 construct: gene Kcnj5
T4 sequence (P48548 whole entry E147Q): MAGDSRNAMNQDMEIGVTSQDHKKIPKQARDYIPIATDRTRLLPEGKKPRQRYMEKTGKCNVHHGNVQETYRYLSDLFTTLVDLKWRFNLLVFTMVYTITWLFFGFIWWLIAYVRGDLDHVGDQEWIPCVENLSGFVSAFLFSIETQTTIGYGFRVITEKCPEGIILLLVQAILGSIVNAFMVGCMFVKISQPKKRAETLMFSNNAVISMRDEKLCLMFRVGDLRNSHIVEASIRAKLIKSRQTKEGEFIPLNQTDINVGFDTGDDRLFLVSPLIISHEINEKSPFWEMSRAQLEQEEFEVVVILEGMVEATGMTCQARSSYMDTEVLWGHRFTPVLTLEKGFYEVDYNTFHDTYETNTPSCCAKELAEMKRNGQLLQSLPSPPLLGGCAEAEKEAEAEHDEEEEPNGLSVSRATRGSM
T4 sequence (P62871 2-340 partner): as the sequence (P62871 2-340 partner) above
T4 sequence (P63212 2-68 partner): as the sequence (P63212 2-68 partner) above
The experiment in a line: two-electrode voltage clamp in Xenopus oocytes, […] compound.

Assay [5] deals with T3, GIRK2. The experiment in a line: two-electrode voltage clamp in Xenopus oocytes, GIRK2+Gβγ, […] compound.
Assay [6] concerns the target T1, GIRK4. The experiment in a line: two-electrode voltage clamp in Xenopus oocytes, GIRK4+Gβγ, […] compound.

T1 sequence (P48548 whole entry): as the sequence (P48548 whole entry E147Q) above, with Q147E counted along it
T1 sequence (P62871 2-340 partner): as the sequence (P62871 2-340 partner) above
T1 sequence (P63212 2-68 partner): as the sequence (P63212 2-68 partner) above
T2 sequence (P48542 whole entry I82L): as the sequence (P48542 whole entry) above, with I82L counted along it
T2 sequence (P62871 2-340 partner): as the sequence (P62871 2-340 partner) above
T2 sequence (P63212 2-68 partner): as the sequence (P63212 2-68 partner) above

Turning to `CN(C)CCN(C)CCc1ccc(Cl)c(Cl)c1` [BD1047], the IC50 turned out to be 17.4 ± 3.7 µM against GIRK4 [1] and 75.4 ± 9.7 µM against GIRK2 [3]. The compound also displayed an inhibition at 100 µM against GIRK2 [2] of 61 ± 1.9%. For the same compound, on GIRK4 [4], the “two-electrode voltage clamp in Xenopus oocytes, 100 μM compound” value is “It was observed that GIRK4 E147Q maintained the strong inhibition as WT”.
For the compound `CN1CCN(CCc2ccc(Cl)c(Cl)c2)CC1` [BD1063], the inhibition at 100 µM on GIRK2 [5] was 31.1 ± 12%; against GIRK4 [6], 61.4 ± 2.6%.

In general, IC50 refers to the midpoint of a concentration-inhibition curve. A low value points to inhibition by little substance. As usually defined, the inhibition is the drop in the measured response relative to a control, in per cent. A lower inhibition goes with a weak effect.

These data come from PMC11031820, “Structural determinants of the direct inhibition of GIRK channels by Sigma-1 receptor antagonist” (The Journal of Biological Chemistry, 2024).
